Our source for the EC50 values is patent publication US20240368174A1, “Antiviral Heterocyclic Compounds” (Enanta Pharmaceuticals, Inc., priority 2023, published 2024).

Assay [1] deals with HMPV clinical isolate A2 strain TN 94-49. Description: HMPV antiviral assay, Method 2 (LLC-MK2 cells with CP-100-356, ATP-Lite). The assay is classed as cell-based. The conditions noted are these: human metapneumovirus; hMPV A2 TN/94-49, LLC-MK2 cells with CP-100-356, Method 2. The gist of the method: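 EC50 comes from a four-parameter fit of percent cell viability (ATP-Lite, normalized to virus-only and cell-only wells) after 7 days at 37 °C. Infection used HMPV A2 TN 94-49 at MOI 0.16 in LLC-MK2 cells, with 2 μM P-gp inhibitor CP-100-356 and 2 μg/mL TPCK-trypsin final; dose range 200 nM top, 2.5-fold, 10 points, duplicate.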

For assay [2], the system named is genotype A, “Long” strain RSV. Description: RSV-A assay (CPE, ATPlite readout in Hep-2 cells). The format is cell-based, Human respiratory syncytial virus. Conditions: human respiratory syncytial virus, activity class. An excerpt:
Hep-2 cells, (originally derived from tumors grown in irradiated-cortisonised weanling rats that had been injected with epidermoid carcinoma tissue from the larynx of a person, but later found to be indistinguishable from HeLa cells by PCR DNA analysis), were used for the culturing of genotype A, “Long” strain RSV. Flasks were inoculated with RSV and viral stocks were collected once cytopathic effect (CPE) was greater than 90%. Viral stocks in 25% sucrose media were snap frozen using liquid nitrogen to increase viral stability. Viral stock titers were quantified by tissue culture infectious dose 50% (TCID50) using 8,000 cells per well and 3-fold viral dilutions across a 96-well plate, cultured for 4 days. Viral stock titers were also quantified by a plaque forming unit assay, as described elsewhere.
Following extensive parameter testing, the final assay is run as follows: Hep-2 cells are seeded into the inner 60 wells of a 96-well plate at 8,000 cells per well in a volume of 50 μL using Growth Media (DMEM without phenol red, 1% L-Glut, 1% Penn/Strep, 1% nonessential amino acids, 10% heat-inactivated FBS). 2-fold serial dilutions of control and test compounds are added to the wells in duplicate in a total volume of 25 μL. Viral stock is then added to the wells at a multiplicity of infection (MOI) of 0.1 in a volume of 25 μL, bringing the total volume of each well to 100 μL. The MOI is calculated using the PFU/mL, or TCID50 if unavailable. Each 96-well plate has a control column of 6 wells with cells and virus but no compound (negative control, max CPE), a column with cells but no compound or virus (positive control, minimum CPE), and a column with no cells or virus or compound (background plate/reagent control). The control wells with cells but no virus are given an additional 25 μL of growth media containing an equal quantity of sucrose as those wells receiving the viral stock in order to keep consistent in media and volume conditions. The outer wells of the plate are filled with 125 μL of moat media (DMEM, 1% Penn/Strep) to act as a thermal and evaporative moat around the test wells. Following a 5-day incubation period, the plates are read using ATPlite (50 uL added per well), which quantifies the amount of ATP (a measure of cell health) present in each well. Assay plates are read using the Envision luminometer. […] EC50 ranges are as follows: A<0.2 μM; B>0.2 μM.
In general terms: Cellular ATP, detected with luciferase, serves as a proxy for viable cell number.

Take `COc1cc(C(=O)NC[C@](O)(c2cc3c(c(-c4ccc(F)c(Cl)c4Cl)n2)OC[C@]3(C)C(N)=O)C2CC2)cc2cn(C3(F)CC3)nc12` [Example 322]: the 50% effective concentration (EC50) in assay [1] and in assay [2] was less than 200 nM in each case.

For `COc1cc(C(=O)NC[C@](O)(c2cc3c(c(-c4ccc(F)c(Cl)c4Cl)n2)OC[C@]3(C)C(N)=O)C2CC2)cc2cn(C(F)F)nc12` [Example 323], the concentration giving a half-maximal response (EC50) in assay [1] and in assay [2] was less than 200 nM in each case.

As to `COc1cc(C(=O)NC[C@](O)(c2cc3c(c(-c4ccc(F)c(Cl)c4Cl)n2)OC[C@]3(C)C(N)=O)C2CC2)cc2cc(C3CC3)nn12` [Example 324], the half-maximal effective concentration (EC50) in assay [1] and in assay [2] was less than 200 nM throughout.

Take `C[C@]1(C(N)=O)COc2c1cc([C@@](O)(CNC(=O)c1cc(OC3CC3)n3nc(C4CC4)cc3c1)C1CC1)nc2-c1ccc(F)c(Cl)c1Cl` [Example 325]: the concentration giving a half-maximal response (EC50) in assay [1] and in assay [2] was less than 200 nM throughout.

As for `COc1cc(C(=O)NC[C@](O)(c2cc3c(c(-c4cc(C(F)(F)F)c(F)cc4F)n2)OC[C@]3(C)C(N)=O)C2CC2)cc2cc(C3CC3)nn12` [Example 327], the concentration for a half-maximal effect (EC50) in assay [1] and in assay [2] was less than 200 nM in each case.

For `COc1cc(C(=O)NC[C@@](O)(C#CC(C)(C)S(C)(=O)=O)c2cc3c(c(-c4cc(Cl)c(F)cc4F)n2)OC[C@]3(C)C(N)=O)cc2cn(C3CC3)nc12` [Example 341], the EC50 in assay [1] is greater than 200 nM; in assay [2] it was less than 200 nM.

`COc1cc(C(=O)NC[C@@](O)(c2ccccc2)c2cc3c(c(-c4ccnc(F)c4Cl)n2)OC[C@]3(C)C(N)=O)cc2cn(C3CC3)nc12` [Example 343]: the EC50 in assay [1] and in assay [2] was less than 200 nM each time.

As to `COc1cc(C(=O)NC[C@@](O)(c2ccccc2)c2cc3c(c(-c4ccnc(F)c4Cl)n2)OC[C@]3(C)C(N)=O)cc2cn(C3(F)CC3)nc12` [Example 344], the EC50 in assay [1] and in assay [2] was less than 200 nM in each case.

Take `COc1cc(C(=O)NC[C@@](O)(c2ccccc2)c2cc3c(c(-c4ccnc(F)c4Cl)n2)OC[C@]3(C)C(N)=O)cc2oc(C3CC3)nc12` [Example 345]: the concentration for a half-maximal effect (EC50) in assay [1] and in assay [2] was less than 200 nM throughout.

As to `COc1cc(C(=O)NC[C@@](O)(c2ccccc2)c2cc3c(c(-c4ccnc(F)c4Cl)n2)OC[C@]3(C)C(N)=O)cc2cc(Cl)cnc12` [Example 346], the EC50 in assay [1] and in assay [2] was less than 200 nM each time.

As for `COc1cc(C(=O)NC[C@](O)(c2cc3c(c(-c4cc(C(F)(F)F)ncc4F)n2)OC[C@]3(C)C(N)=O)C2CC2)cc2cn(C3CC3)nc12` [Example 347], the 50% effective concentration (EC50) in assay [1] and in assay [2] was less than 200 nM each time.

For `COc1cc(C(=O)NC[C@](O)(c2cc3c(c(-c4cc(C(F)(F)F)ncc4F)n2)OC[C@]3(C)C(N)=O)C2CC2)cc2cn(C3(F)CC3)nc12` [Example 348], the EC50 in assay [1] and in assay [2] was less than 200 nM each time.

On to `COc1cc(C(=O)NC[C@](O)(c2cc3c(c(-c4cc(C(F)(F)F)ncc4F)n2)OC[C@]3(C)C(N)=O)C2CC2)cc2oc(C3CC3)nc12` [Example 349], for which the half-maximal effective concentration (EC50) in assay [1] and in assay [2] was less than 200 nM throughout.

As for `COc1cc(C(=O)N(C)C[C@](O)(c2cc3c(c(-c4ccc(F)c(Cl)c4)n2)OC[C@]3(C(N)=O)C(F)F)C2CC2)cc2cn(C3CC3)nc12` [Example 350], the half-maximal effective concentration (EC50) in assay [1] is greater than 200 nM; in assay [2], less than 200 nM.

Regarding `COc1cc(C(=O)N(C)C[C@](O)(c2cc3c(c(-c4ccc(F)c(Cl)c4)n2)OC[C@@]3(C(N)=O)C(F)F)C2CC2)cc2cn(C3CC3)nc12` [Example 351], the EC50 in assay [1] and in assay [2] was greater than 200 nM in each case.

Take `COc1cc(C(=O)NC[C@](O)(c2cc3c(c(-c4cc(C(F)(F)F)ncc4F)n2)OC[C@]3(C)C(N)=O)C2CC2)cc2cn(C(F)F)nc12` [Example 352]: the EC50 in assay [1] and in assay [2] was less than 200 nM in each case.

`COc1cc(C(=O)NC[C@@](O)(c2cccc(F)c2)c2cc3c(c(-c4cc(F)ncc4Cl)n2)OC[C@]3(C)C(N)=O)cc2cn(C3CC3)nc12` [Example 376]: the half-maximal effective concentration (EC50) in assay [1] and in assay [2] was less than 200 nM in each case.

Consider `COc1cc(C(=O)NC[C@@](O)(c2cccc(F)c2)c2cc3c(c(-c4ccnc(C)c4Cl)n2)OC[C@]3(C)C(N)=O)cc2cn(C3CC3)nc12` [Example 378], for which the 50% effective concentration (EC50) in assay [1] and in assay [2] was less than 200 nM throughout.

For the molecule `COc1cc(C(=O)NCC(O)(c2cccc(F)c2)c2cc3c(c(-c4cc(C(F)(F)F)ncc4Cl)n2)OC[C@]3(C)C(N)=O)cc2cn(C3CC3)nc12` (some centres unmarked) [Example 379], the EC50 in assay [1] is greater than 200 nM; in assay [2], less than 200 nM.

Consider `COc1cc(C(=O)NC[C@](O)(c2cc3c(c(-c4ccnc(F)c4Cl)n2)OC[C@]3(C)C(N)=O)C(F)(F)F)cc2cn(C(F)F)nc12` [Example 380], for which the EC50 in assay [1] and in assay [2] was less than 200 nM throughout.

As for `COc1cc(C(=O)NC[C@](O)(c2cc3c(c(-c4cc(F)nc(F)c4)n2)OC[C@]3(C)C(N)=O)C2CC2)cc2cn(C3CC3)nc12` [Example 390], the 50% effective concentration (EC50) in assay [1] and in assay [2] was less than 200 nM in each case.

For the molecule `COc1cc(C(=O)NC[C@@](O)(c2cccc(F)c2)c2cc3c(c(-c4ccnc(F)c4Cl)n2)OC[C@]3(C)C(N)=O)cc2cn(C3(F)CC3)nc12` [Example 401], the concentration for a half-maximal effect (EC50) in assay [1] and in assay [2] was less than 200 nM throughout.

In the case of `COc1cc(C(=O)NC[C@](O)(c2cccc(F)c2)c2cc3c(c(-c4ccnc(F)c4Cl)n2)OC[C@]3(C)C(N)=O)cc2cn(C3(F)CC3)nc12` [Example 402], the EC50 in assay [1] and in assay [2] was greater than 200 nM in each case.

Turning to `COc1cc(C(=O)NC[C@@](O)(c2cccc(F)c2)c2cc3c(c(-c4cc(F)cnc4Cl)n2)OC[C@]3(C)C(N)=O)cc2cn(C3(F)CC3)nc12` [Example 403], the EC50 in assay [1] is greater than 200 nM; in assay [2], less than 200 nM.

Turning to `COc1cc(C(=O)NC[C@](O)(c2cccc(F)c2)c2cc3c(c(-c4cc(F)cnc4Cl)n2)OC[C@]3(C)C(N)=O)cc2cn(C3(F)CC3)nc12` [Example 404], the 50% effective concentration (EC50) in assay [1] and in assay [2] was greater than 200 nM each time.

As for `COc1cc(C(=O)NC[C@@](O)(c2cccc(F)c2)c2cc3c(c(-c4ccnc(F)c4Cl)n2)OC[C@]3(C)C(N)=O)cc2cn(C3CC3)nc12` [Example 407], the 50% effective concentration (EC50) in assay [1] and in assay [2] was less than 200 nM in each case.

In the case of `COc1cc(C(=O)NC[C@@](O)(c2cccc(F)c2)c2cc3c(c(-c4cc(C(F)(F)F)ncc4F)n2)OC[C@]3(C)C(N)=O)cc2cn(C3CC3)nc12` [Example 408], the 50% effective concentration (EC50) in assay [1] and in assay [2] was less than 200 nM throughout.

For `COc1cc(C(=O)NC[C@@](O)(c2cccc(F)c2)c2cc3c(c(-c4cc(Cl)ncc4F)n2)OC[C@]3(C)C(N)=O)cc2cn(C3CC3)nc12` [Example 410], the EC50 in assay [1] and in assay [2] was less than 200 nM throughout.

Take `COc1cc(C(=O)NC[C@](O)(c2cc3c(c(-c4cc(C)ncc4F)n2)OC[C@]3(C)C(N)=O)C2CC2)cc2cn(C3CC3)nc12` [Example 412]: the EC50 in assay [1] and in assay [2] was less than 200 nM throughout.

`COc1cc(C(=O)NC[C@](O)(c2cc3c(c(-c4ccsc4)n2)OC[C@]3(C)C(N)=O)C2CC2)cc2cn(C3CC3)nc12` [Example 413]: the concentration giving a half-maximal response (EC50) in assay [1] and in assay [2] was less than 200 nM throughout.

Take `COc1cc(C(=O)NC[C@](O)(c2cc3c(c(-c4cscc4C)n2)OC[C@]3(C)C(N)=O)C2CC2)cc2cn(C3CC3)nc12` [Example 414]: the EC50 in assay [1] and in assay [2] was less than 200 nM throughout.

For orientation: EC50 means the concentration needed to bring the measured effect to its halfway point. High values mean a need for much substance, low ones an effect from little substance.
